Source: US8709379B2, “Liposomal nanoparticles and other formulations of fenretinide for use in therapy and drug delivery” (Scitech Development, LLC, priority 2006, dated 2014)
In brackets after ≈: the same amount, converted by molar mass. Several values for one entry are separate records, joined by “and”; a condition that tells them apart may be missing. Equal values may be shown once. Read-outs that look alike come from different tables or passages of the source.

Experiments:
[1] = Delivered dose and retinoid flux, EpiDerm-FT in Franz cells; details: human, 1.7 mg Retin-A cream
Description: (§1) Using an analytical method measuring HPR by HPLC, and extraction procedures that yield >95% recovery of HPR from skin homogenates, EpiDerm Enhanced Barrier Function and EpiDerm Full-thickness skin specimens were removed from the Franz cells at the scheduled time, washed and halved as described below, and then homogenized and extracted in acetonitrile supplemented with 4 μg/mL BHT, 0.1% ethanol for quantitation of HPR by HPLC. Receiver medium specimens were collected and processed for HPR analysis by HPLC as described below. Injection volumes were 100 μl for extracts of skin and receiver medium and 50 μl for calibration standards. HPR quantitation was by back calculation to a standard curve constructed from clinical grade HPR received from the NCI. […] For the second permeation study of Retin-A, PD05057 and HPR formulation C5 2005 using enhanced barrier function epidermal models, ATRA in the extracts of treated skin was quantified against an ATRA standard curve and HPR against an HPR standard curve.
(§2) 18 reconstituted EpiDerm-Full Thickness specimens (EFT-306-AFAB-PRF, lot #7024-306-AFAB-PR) and 18 reconstituted EpiDerm Skin Model Enhanced Barrier Function (EPI-606-X-AFAB-PRF, lot #5093ofs) were received in good condition from Mattek Inc via overnight courier. EpiDerm-FT was maintained in culture by specialized medium changes every other day according to the manufacturer's instructions. EpiDerm-606X was stored refrigerated until use. EpiDerm-FT medium was free of phenol red, antibiotic and anti-fungal additives (EFT-300-MM-ASY-AFAB-PRF, lot #110405aab and EPI-100-X), so as to avoid creating artifactual toxicity or proinflammatory response. The particular skin specimens were all reconstituted with normal human epidermal keratinocytes and, for EpiDerm-FT, fibroblasts as well from a single donor foreskin.
(§3) Three topical products were tested in the in vitro skin model: Retin-A 0.1% (lot #5BM258, expiry 02/07), HPR in topical formulation C5 and another HPR formulation (PD05057). These drugs were tested blindly using the following codes: “A” for Retin-A, “B” for the C5 formulation of HPR, and “D” for the HPR formulation PD05057. Receiver medium was made by mixing pre-warmed, 37° C. EFT-306 medium 5:1 with human serum albumin (Sigma A6909, lot #055K8904, then lot #095K8906) to its physiological concentration of 50 mg/mL. To prevent oxidation of HPR during the collection period, BHT was added to the receiver medium to a final concentration of 10 μg/mL from a 40 mg/mL solution of BHT-NF (Spectrum Chemicals, B1196, lot #UM0659) in Ethanol USP (NDC 11098-503-05, lot #121310). Each sterile amber Franz cells was pre-warmed to 37° C. using a circulating water bath, the bottom chamber filled completely with receiver medium (˜10 ml), and then reconstituted skin specimens were removed from the cell culture wells and spread across the orifice epidermis upward, and clamped into place with a sterile top chamber. Pre-weighed aliquots of a target dose of 1.7 mg Retin-A prepared using an analytical balance were applied to the epidermal face, disbursed and messaged with the aid of the rubber tip of 1 ml BD tuberculin syringes and the start time recorded.

[2] = test system: EpiDerm-FT (full thickness living skin model)
Description: as §1, §2, §3

[3] = test system: EpiDerm-606X (epidermal model, enhanced barrier function); details: human, 0.1 %
Description: as §1, §2, §3

[4] = test system: EpiDerm-FT (full thickness living skin model); assay: Delivered dose and retinoid flux, EpiDerm-FT in Franz cells; details: EpiDerm-FT, collection period up to 5 hours
Description: as §1, §2, §3

human tumor cell lines = details: for 72 hours in vitro; cited from earlier work
[5] = Bioavailability of oral HPR in corn oil versus IV F23 in Sprague-Dawley rats; assay type: in vivo; details: plasma, rat, 1200 mg/m^2 in corn oil by gavage vs 444 mg/m^2 IV F23, AUC0-30, read-out: bioavailability of orally dosed HPR
Description: The appropriate doses of injectable HPR administered IV to achieve desired blood or tissue levels can be determined by those skilled in the art, using data from related studies of oral and intravenous HPR formulations in healthy rats. For example, the present inventors administered a single, non-toxic bolus dose of 444 mg/m^2 of the F23 formulation (described herein) that was prepared at a strength of 50 mg/mL HPR, via femoral vein catheters to a group of seven dual catheterized Sprague-Dawley rats. A second group of rats received a single, non-toxic dose of 1200 mg/m^2 HPR in corn oil via oral gavage after an overnight fast which was maintained up until 2 hours after dosing. […]
Mean blood plasma concentration-time curves of measured HPR following oral and IV administration are shown in (FIG. 2). From such results, the bioavailability of the oral HPR can be calculated, as an accepted measure of the proportion of orally administered drug that entered systemic circulation. […] Bioavailability of oral HPR administered in corn oil was calculated by comparing the AUC values achieved by oral and intravenous dosing using the equation:
[formula] […] Assuming this to be similar to bioavailability of oral HPR in humans, which cannot be measured directly until human patients are actually dosed with intravenous HPR, it is possible to estimate suitable doses of HPR lipid nanoparticles for clinical use.

[6] = rat, 24 hours after dosing; cited from earlier work
[7] = Maximum (saturation) solubility of HPR in physiological aqueous systems with ethanol or human plasma proteins; assay type: physicochemical
Description: Although the compound is readily soluble in ethanol, this solvent solubility was not maintained when an ethanol solution of HPR was mixed into aqueous buffered systems, like physiological solutions, and in fact, even when the ethanol content of an aqueous solution of HPR was as high as 20%, the HPR solubility only reached approximately 1-2 μg/ml.
Purified human proteins were obtained from Sigma Chemical Company and dissolved in receiver medium, which was the same as the specialized medium from Mattek Inc used to maintain reconstituted skin systems or assay enhanced barrier permeability function. The individual proteins were dissolved to their respective plasma concentrations: high-density lipoprotein to 0.2 mg/mL, retinol binding protein to 0.05 mg/mL, serum albumin to 50 mg/mL (A6909, lot #055K8904), and acid α1-glycoprotein to 1 mg/mL (50646, lot #448248/1). HPR dissolved to 100 mg/mL in absolute ethanol supplemented with 4 mg/mL BHT was added to each protein solution to final theoretical concentration of 50 μg/mL and mixed by vortexing, the insoluble drug removed by centrifugation (12,000×g, 5 min, 23° C.), and the supernatant analyzed by HPLC to quantify HPR concentration.
A study of the HPR solubilizing properties of physiological concentrations of four human drug-binding plasma proteins that were expected to bind HPR under physiological conditions was conducted in receiver medium: high-density lipoprotein (HDL), retinol binding protein (RBP), albumin (ALB), and acid α-1-glycoprotein (AGP). Although certainly not the highest affinity binding, ALB solubilized more HPR per mL of receiver medium than any other plasma protein tested, driven primarily by its much higher physiological concentration than the other proteins. The solubilizing capacity of ALB was 7.5 μg HPR per ml of medium, which was 5-fold higher than that of 20 vol % ethanol. Using physiological concentrations of ALB in the 10 ml receiving medium chamber created a sink condition capable of binding 75 μg of HPR. Since the test surface area of the Franz cell was 1 cm^2 and the testing was conducted over 5 hours, this receiver medium was capable of supporting an average flux rate of 15 μg/cm^2/hour. It was concluded that this receiving medium should provide true sink conditions, considering the applied test dose of API from each formulation was just 1.7 μg/cm^2.

[8] = cited from earlier work
[9] = test system: isolated epidermis (cadaveric); assay: Permeation into isolated cadaveric epidermis in Franz cells; assay type: in vitro ADME; details: receiver medium PBS with ethanol to 20 vol %
Description: Epidermal drug levels achieved by 3 hours were stable to 24 hours. The C5 formulation reached 11. μg/mg after single application. The products were tested as 0.1% strength creams. Thus, by increasing strength of the product to 0.5% and applying twice daily, it is possible to achieve target content levels in the skin. Moreover, as discussed below, the C5 formulation may be advantageous in reaching this level in epidermis alone.

[10] = Clinical trial and pharmacokinetic study of oral HPR (corn oil soft gel capsules) in adult solid tumor patients; assay type: in vivo, human; details: for Cmax: po
Description: In an early clinical trial and pharmacokinetic study of oral HPR (corn oil, soft gel capsules) administered qdx7 to adult solid tumor patients at Wayne State University, dose escalation proceeded to 1600 mg/m^2 TID per day for seven days (˜90 capsules/day for one week).

SCLC patients = details: cited from earlier work
rodents = details: in vivo; cited from earlier work
[11] = Maximum (saturation) solubility of HPR in physiological aqueous systems with ethanol or human plasma proteins; assay type: physicochemical; details: 23 °C, kinetic from dmso stock, PBS pH 7.4

In the case of `CC1=C(/C=C/C(C)=C/C=C/C(C)=C/C(=O)O)C(C)(C)CCC1` [ATRA, all-trans-retinoic acid], the half-life at 0.1 % [1] is reported as greater than 2 h, the “detection in receiver medium” value [2] is reported as “No ATRA was detected” and the “retinoid in Cells (skin specimen)” value ([2]; human, 0.2 h, 0.1 %) is reported as 0.031 µg. For the same molecule, the “retinoid in receiver Medium” value ([2]; human, 0.2 h, 0.1 %) was 0 µg, the “retinoid in Cells (skin specimen)” value ([2]; human, 2.1 h, 0.1 %) was 0.042 µg and the “retinoid in receiver Medium” value ([2]; human, 2.1 h, 0.1 %) was 0 µg. The “retinoid in Cells (skin specimen)” value ([2]; human, 3 h, 0.1 %) was 0.056 µg, the “retinoid in receiver Medium” value ([2]; human, 3 h, 0.1 %) was 0 µg and the “share of applied dose in skin specimen” value ([2]; human, 3 h, 0.1 %) was 2.9%. For the same molecule, the “retinoid in Cells (skin specimen)” value ([2]; human, 5 h, 0.1 %) was 0.035 µg, the “retinoid in receiver Medium” value ([2]; human, 5 h, 0.1 %) was 0 µg and the “retinoid in Cells (epidermis)” value ([3]; 1 h) was 0.209 µg. For the same molecule, the “retinoid in receiver Medium” value ([3]; 1 h) was 0 µg, the “retinoid in Cells (epidermis)” value ([3]; 2 h) was 0.106 µg and the “retinoid in receiver Medium” value ([3]; 2 h) was 0 µg. For the same molecule, the “retinoid in Cells (epidermis)” value ([3]; 3 h) was 0.046 µg, the “retinoid in receiver Medium” value ([3]; 3 h) was 0 µg and the “retinoid in Cells (epidermis)” value ([3]; 5 h) was 0.032 µg. For the same molecule, the “retinoid in receiver Medium” value ([3]; 5 h) was 0 µg.

With `CC1=C(/C=C/C(C)=C/C=C/C(C)=C\C(=O)O)C(C)(C)CCC1` [Formulation 13-cis-RA, 13-cis-retinoic acid] the “detection in receiver medium” value [4] was “accumulated in the receiver medium”.

For `CC1=C(/C=C/C(C)=C/C=C/C(C)=C/C(=O)Nc2ccc(O)cc2)C(C)(C)CCC1` [HPR, N-4-hydroxyphenylretinamide], the “minimum HPR exposure level required to inhibit human tumor cell lines by at least 50-90%” value (human tumor cell lines) is given as 10 µM, the bioavailability [5] is given as 8% and the “accumulation in pancreas over plasma” value [6] is given as 15-20 fold. For the same molecule, the solubility ([7]; PBS with 20% ethanol, 23 °C, pH 7.4, aqueous with cosolvent or surfactant or cyclodextrin, kinetic from dmso stock, PBS pH 7.4, ethanol to 20% of volume, read-out: Maximum HPR Solubility) was 1 to 2 µg/mL (≈ 2.55 to 5.11 µM), the “increase of HPR solubility by ethanol” value ([7]; PBS with 20 vol % ethanol versus physiological saline) was 200 fold and the solubility ([7]; phosphate-buffered saline with 20 vol % ethanol, pH 7.4, aqueous with cosolvent or surfactant or cyclodextrin, kinetic from dmso stock, phosphate-buffered saline with ethanol to 20 vol %, read-out: HPR solubility) was roughly 1.3 µg/mL (≈ 3.32 µM). For the same molecule, the solubility ([7]; physiological saline / aqueous systems, saline or isotonic, physiological saline / aqueous systems, read-out: HPR solubility) was roughly 0.005 µg/mL (≈ 0.0128 µM), the “solubilizing capacity of ALB relative to 20 vol % ethanol” value ([7]; receiver medium with albumin) was 5 fold and the “plasma level of HPR” value ([8]; oral 25 mg/kg/day for 10 days, 3 hrs after last dose) was 80 ng/mL. The “plasma level of HPR” value ([8]; oral 125 mg/kg/day for 10 days, 3 hrs after last dose) was 260 ng/mL, the “plasma level of HPR” value ([8]; oral 800 mg/kg/day) was 315 ng/mL and the “HPR in receiver medium” value [9] was “not detected”. The Cmax ([10]; human, plasma, after the first dose) was 1000 ng/mL to 1300 ng/mL and 2.6 µM to 3.3 µM, the Cmax ([10]; human, plasma, after the last dose) was 2800 ng/mL to 4600 ng/mL and 7 µM to 12 µM and the half-life ([10]; human, plasma, oral HPR, patients, read-out: terminal phase half-life) was 8 to 14 h. For the same molecule, the “ceiling of plasma HPR level” value ([10]; oral, regardless of schedule or dose above 1200 mg/m^2 BID) was no more than 5 µg/mL, the “maximum concentration of HPR in blood-plasma (±SD)” value (SCLC patients; 14 SCLC patients, 3-4 hours after 14th oral dose (twice/day, 7 days), in µM) was 7.7±4.4 04 and the maximum plasma concentration (SCLC patients; SCLC patients, after final of 14 oral doses of 900 mg/m^2) was “approximately 7.7 μM”. For the same molecule, the “stable disease, share of advanced SCLC patients” value (SCLC patients; oral HPR) was 30%, the “maximum tolerated dose (MTD)” value (rodents) was 651 mg/m^2 and the “maximum tolerated dose for parenteral HPR” value (rodents) was roughly 650 mg/m^2 per day. For the same molecule, the “well tolerated daily dose” value (rodents) was roughly 600 mg/m^2, the solubility ([11]; human, PBS with albumin 50 g/L, pH 7.4, plasma or biological fluid, albumin 50 g/L) was 7 to 8 µg/mL (≈ 17.9 to 20.4 µM) and the solubility ([11]; human, PBS with high density lipoprotein 0.2 g/L, pH 7.4, plasma or biological fluid, high density lipoprotein 0.2 g/L) was 1.5 to 3 µg/mL (≈ 3.83 to 7.66 µM). For the same molecule, the solubility ([11]; human, PBS with retinol binding protein 0.05 g/L, pH 7.4, plasma or biological fluid, retinol binding protein 0.05 g/L) was less than 1 µg/mL, the solubility ([11]; human, PBS with α1-acid-glycoprotein 1 g/L, pH 7.4, plasma or biological fluid, α1-acid-glycoprotein 1 g/L) was 1 to 2 µg/mL (≈ 2.55 to 5.11 µM) and the solubility ([11]; phosphate buffered saline, pH 7.4, aqueous buffer, additive none) was less than 1 µg/mL.

For `COc1ccc(NC(=O)\C=C(C)/C=C/C=C(C)\C=C\C2=C(C)CCCC2(C)C)cc1` [MPR], the “plasma level of MPR metabolite” value ([8]; oral HPR 125 mg/kg/day) is listed as 60 ng/mL and the “plasma level of MPR metabolite” value ([8]; oral HPR 800 mg/kg/day) is listed as 60 ng/mL.
